Source: US20260263456A1, “TADALAFIL GASTRIC-SOLUBLE RAPID-RELEASE SOLID DISPERSION, TABLET, AND USE THEREOF” (Shenzhen Hanhui Pharmaceutical Technology Co., Ltd., priority 2023, published 2026)
In brackets after ≈: the same amount, converted by molar mass.

Tests used:
[1] = Polymer and surfactant screening: solubility of solid dispersions in pH 1.0 and pH 6.8 media; format: physicochemical; details: API alone, 2 mg/mL, one value across 5 min and 30 min
Method: In this implementation example, a micro-scale rotary evaporation method was employed to screen various types of polymers and surfactants, specifically in the context of the active pharmaceutical ingredient (API) ratio of polymer to surfactant.
Acetone was utilized to prepare a stock solution of the active pharmaceutical ingredient at a concentration of 5 mg/mL, a polymer stock solution at 10 mg/mL, and a surfactant stock solution at 10 mg/mL. These solutions were evenly mixed in two identical portions, then centrifuged and dried to create the solid dispersion.
To each sample tube, 1 mL of pH 1.0 and pH 6.8 media was added, and the samples were vortexed at room temperature to ensure complete dispersion. Samples were collected at 5 minutes and 30 minutes, then centrifuged, diluted, and the absorbance was measured to calculate solubility.

[2] = Solubility of tadalafil API in various solvents; format: physicochemical; details: thermodynamic from solid, 25° C. and 60° C.
Text: A suitable amount of tadalafil was weighed and dissolved in various commonly used organic solvents to identify the most appropriate solvents for establishing UV methodology. The solvents utilized for preparing solid dispersions, along with the solubility of tadalafil, the active pharmaceutical ingredient, in different solvents, are presented in Table 4 below.

## CN1CC(=O)N2[C@H](c3ccc4c(c3)OCO4)c3[nH]c4ccccc4c3C[C@@H]2C1=O [Tadalafil]
[1]; pH 1.0
  pH 1.0(Solubility mg/mL): 0.002 mg/mL
[1]; pH 6.8
  pH 6.8(Solubility mg/mL): 0.027 mg/mL
[2]; organic solvent or mixture, Acetone
  solubility: 10.2 to 16.9 mg/mL (≈ 26.1 to 43.5 mM)
[2]; organic solvent or mixture, Acetonitrile
  solubility: 16 to 23.9 mg/mL (≈ 41 to 61.5 mM)
[2]; organic solvent or mixture, Anhydrous ethanol
  solubility: < 10.8 mg/mL
[2]; organic solvent or mixture, Dichloromethane
  solubility: < 10.8 mg/mL
[2]; organic solvent or mixture, Tetrahydrofuran
  solubility: 23.8 to 47.6 mg/mL (≈ 61.2 to 122 mM)
[2]; pH 6.8 medium, aqueous buffer, pH 6.8
  solubility: < 8.04 mg/mL
